In patent US20080070888A1, “AZETIDINE AND AZETIDONE DERIVATIVES USEFUL IN TREATING PAIN AND DISORDERS OF LIPID METABOLISM” (priority 2006, published 2008):
Counter-ions that a name gives are not always drawn.

The molecules below were run against T1, CaV3.2 (Homo sapiens, UniProt O95180) (assay: CaV3.2 assay: functional evaluation of T-type calcium currents (IonWorks HT screen for hCaV3.2 / conventional whole cell patch clamp) in stably transfected HEK cells).
T1 construct: expressed in transfected cells; host or cells: HEK cells, stably transfected; human Kir2.1 co-expressed
T1 sequence (O95180 whole entry): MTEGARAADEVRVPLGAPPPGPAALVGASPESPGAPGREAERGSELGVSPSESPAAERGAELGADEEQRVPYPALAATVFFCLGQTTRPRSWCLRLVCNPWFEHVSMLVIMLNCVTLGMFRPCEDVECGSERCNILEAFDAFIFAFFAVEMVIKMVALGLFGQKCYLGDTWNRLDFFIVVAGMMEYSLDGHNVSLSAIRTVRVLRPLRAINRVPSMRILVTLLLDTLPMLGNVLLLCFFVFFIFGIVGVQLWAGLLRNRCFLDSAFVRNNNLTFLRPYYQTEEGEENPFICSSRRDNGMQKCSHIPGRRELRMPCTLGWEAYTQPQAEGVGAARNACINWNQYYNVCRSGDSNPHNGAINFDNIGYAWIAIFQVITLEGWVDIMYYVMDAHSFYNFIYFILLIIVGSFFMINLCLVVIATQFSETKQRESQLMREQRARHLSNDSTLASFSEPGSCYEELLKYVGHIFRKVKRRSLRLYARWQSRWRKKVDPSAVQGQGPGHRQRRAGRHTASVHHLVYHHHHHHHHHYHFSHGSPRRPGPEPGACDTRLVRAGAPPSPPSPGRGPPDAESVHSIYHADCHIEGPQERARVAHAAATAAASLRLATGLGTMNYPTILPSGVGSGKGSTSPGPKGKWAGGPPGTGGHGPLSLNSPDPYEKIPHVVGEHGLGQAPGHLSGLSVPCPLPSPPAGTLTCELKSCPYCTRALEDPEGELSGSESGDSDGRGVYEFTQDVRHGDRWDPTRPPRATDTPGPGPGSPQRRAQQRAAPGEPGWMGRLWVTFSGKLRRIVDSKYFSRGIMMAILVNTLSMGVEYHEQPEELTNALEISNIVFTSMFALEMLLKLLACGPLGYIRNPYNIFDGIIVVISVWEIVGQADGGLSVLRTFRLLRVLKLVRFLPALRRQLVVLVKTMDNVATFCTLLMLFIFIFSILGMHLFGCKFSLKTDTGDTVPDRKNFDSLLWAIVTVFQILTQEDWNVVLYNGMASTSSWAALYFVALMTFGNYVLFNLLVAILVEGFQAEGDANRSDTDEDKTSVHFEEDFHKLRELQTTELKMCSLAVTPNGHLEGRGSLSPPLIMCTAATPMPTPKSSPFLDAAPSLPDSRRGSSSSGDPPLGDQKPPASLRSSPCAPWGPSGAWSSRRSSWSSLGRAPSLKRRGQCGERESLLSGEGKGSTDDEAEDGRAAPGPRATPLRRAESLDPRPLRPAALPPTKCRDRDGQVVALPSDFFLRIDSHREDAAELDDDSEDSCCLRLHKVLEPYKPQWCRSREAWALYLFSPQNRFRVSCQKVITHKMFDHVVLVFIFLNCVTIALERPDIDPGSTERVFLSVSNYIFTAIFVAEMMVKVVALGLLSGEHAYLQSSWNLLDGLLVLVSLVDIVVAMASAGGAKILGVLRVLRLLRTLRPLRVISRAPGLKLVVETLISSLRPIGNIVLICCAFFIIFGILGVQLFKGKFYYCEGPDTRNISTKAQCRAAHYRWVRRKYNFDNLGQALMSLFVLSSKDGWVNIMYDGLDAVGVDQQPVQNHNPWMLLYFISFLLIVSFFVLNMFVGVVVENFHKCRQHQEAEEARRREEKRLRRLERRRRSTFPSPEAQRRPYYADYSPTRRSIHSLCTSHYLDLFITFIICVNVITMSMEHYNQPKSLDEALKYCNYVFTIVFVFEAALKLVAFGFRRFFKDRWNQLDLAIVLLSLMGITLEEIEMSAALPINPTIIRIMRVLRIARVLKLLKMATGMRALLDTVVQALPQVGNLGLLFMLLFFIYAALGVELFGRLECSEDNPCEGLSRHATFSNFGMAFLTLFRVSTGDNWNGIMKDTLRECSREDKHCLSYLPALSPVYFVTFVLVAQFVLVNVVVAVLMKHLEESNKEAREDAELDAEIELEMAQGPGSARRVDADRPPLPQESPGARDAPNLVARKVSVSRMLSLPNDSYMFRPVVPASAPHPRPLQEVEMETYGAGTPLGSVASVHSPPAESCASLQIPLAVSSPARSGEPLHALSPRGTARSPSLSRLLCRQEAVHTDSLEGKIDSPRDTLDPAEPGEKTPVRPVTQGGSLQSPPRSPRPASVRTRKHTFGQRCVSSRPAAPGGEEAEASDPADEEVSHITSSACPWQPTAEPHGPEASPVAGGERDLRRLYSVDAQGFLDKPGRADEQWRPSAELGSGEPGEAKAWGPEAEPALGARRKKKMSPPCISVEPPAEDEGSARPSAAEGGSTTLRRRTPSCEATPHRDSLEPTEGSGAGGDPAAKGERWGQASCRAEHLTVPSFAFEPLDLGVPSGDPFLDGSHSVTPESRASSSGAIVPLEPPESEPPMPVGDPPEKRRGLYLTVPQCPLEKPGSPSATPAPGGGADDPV
Type: cell-based
Source text: Functional evaluation of voltage-gated ion channels was used to determine potency and/or single concentration efficacy of proprietary compounds. Two different methodologies were used to measure ion currents: the IonWorks HT (Molecular Devices, Sunnyvale, Calif.) a moderate throughput voltage clamp screening platform that utilizes 96-well compound plates and conventional whole cell patch clamp for lower throughput, higher fidelity determinations.
HEK cells were transiently transfected and then selected for stable heterologous expression of different channel proteins of interest. Calcium channel cell lines expressed a resting potassium current, human Kir2.1, and the pore forming α-subunit of voltage-gated calcium channels. In the case of Cav2.1 cells the auxiliary subunit, β2a, was also expressed. Calcium channel lines that were used to generate the data in this document expressed either human Cav3.2, rat Cav3.2 or human Cav2.1. The human heart sodium channel, hNav1.5, was stably expressed in CHO cells. These cells were licensed from the University of Pennsylvania.
Cell lines were grown at 37° C. in humidified incubators, equilibrated with 95% air/5% CO2. CHO cells were grown in Ham's F-12 medium. HEK cells were grown in DMEM. All media were supplemented with 10% heat-inactivated fetal bovine serum, penicillin, streptomycin and appropriate selection antibiotics (zeocin, geneticin and/or hygromycin). Cells were passaged when 80% confluent or less.
Ionworks Screen for hCaV3.2
The extracellular buffer for experiments using this instrument contained the following (mM) (NaCl 125, HEPES 10, KCl 5.4, CaCl2 1.8, MgCl2 1.8, 0.2 BaCl2 pH 7.35). […]
Experiments were performed at room temperature. […] During this time leak currents were measured during a step to −110 mV (200 milliseconds). […]
T-type currents were measured as the peak inward current minus the current at the end of the 250 msec step to −20 mV. […] After incubation with compound for 10 minutes currents were measured again. […] For each compound, 8-point concentration-effect relationships were measured with ½ log serial dilutions. […]

IC50 | Compound
0.212 µM | CC(C)N1CC2(CCN(c3nc4cc(F)c(C(F)(F)F)cc4[nH]3)CC2)C1c1ccc(Cl)cc1 (stereo not drawn) [Example 2]
4.99 µM | CC(C)N1CC2(CCN(c3ccccn3)CC2)C1c1ccc(Cl)cc1 (stereo not drawn) [Example 3, 1-(4-Chlorophenyl)-2-(1-methylethyl)-7-(2-pyridinyl)-2,7-diazaspiro[3.5]nonane, formic acid salt]
8.63 µM | CC(C)N1CC2(CCN(c3ncccn3)CC2)C1c1ccc(Cl)cc1 (stereo not drawn) [Example 4, 1-(4-Chlorophenyl)-2-(1-methylethyl)-7-(2-pyrimidinyl)-2,7-diazaspiro[3.5]nonane, formic acid salt]
